According to patent US20040063662A1, “Selenophene anti-tumor agents” (priority 1996, published 2004):

Assays:
K-562 = assay: NCI human tumor cell panel: K-562 (Leukemia); type: cell-based
MOLT-4 = assay: NCI human tumor cell panel: MOLT-4 (Leukemia); type: cell-based
SR = assay: NCI human tumor cell panel: SR (Leukemia); type: cell-based
A549/ATCC = assay: NCI human tumor cell panel: A549/ATCC (Non-Small Cell Lung Cancer); type: cell-based
EKVX = assay: NCI human tumor cell panel: EKVX (Non-Small Cell Lung Cancer); type: cell-based
HOP-62 = assay: NCI human tumor cell panel: HOP-62 (Non-Small Cell Lung Cancer); type: cell-based
NCI-H23 = assay: NCI human tumor cell panel: NCI-H23 (Non-Small Cell Lung Cancer); type: cell-based
NCI-H460 = assay: NCI human tumor cell panel: NCI-H460 (Non-Small Cell Lung Cancer); type: cell-based
HCT-116 = assay: NCI human tumor cell panel: HCT-116 (Colon Cancer); type: cell-based
HCT-15 = assay: NCI human tumor cell panel: HCT-15 (Colon Cancer); type: cell-based
HT29 = assay: NCI human tumor cell panel: HT29 (Colon Cancer); type: cell-based
KM12 = assay: NCI human tumor cell panel: KM12 (Colon Cancer); type: cell-based
SW-620 = assay: NCI human tumor cell panel: SW-620 (Colon Cancer); type: cell-based
SF-295 = assay: NCI human tumor cell panel: SF-295 (CNS Cancer); type: cell-based
SNB-75 = assay: NCI human tumor cell panel: SNB-75 (CNS Cancer); type: cell-based
LOX IMVI = assay: NCI human tumor cell panel: LOX IMVI (Melanoma); type: cell-based
MALME-3M = assay: NCI human tumor cell panel: MALME-3M (Melanoma); type: cell-based; details: Malme-3M
UACC-257 = assay: NCI human tumor cell panel: UACC-257 (Melanoma); type: cell-based
UACC-62 = assay: NCI human tumor cell panel: UACC-62 (Melanoma); type: cell-based
IGROV1 = assay: NCI human tumor cell panel: IGROV1 (Ovarian Cancer); type: cell-based
OVCAR-4 = assay: NCI human tumor cell panel: OVCAR-4 (Ovarian Cancer); type: cell-based; details: OVCAR-4, read-out: Log10 GI50 (converted)
OVCAR-5 = assay: NCI human tumor cell panel: OVCAR-5 (Ovarian Cancer); type: cell-based; details: OVCAR-5, read-out: Log10 GI50 (converted)
OVCAR-8 = assay: NCI human tumor cell panel: OVCAR-8 (Ovarian Cancer); type: cell-based
786-0 = assay: NCI human tumor cell panel: 786-0 (Renal Cancer); type: cell-based
A498 = assay: NCI human tumor cell panel: A498 (Renal Cancer); type: cell-based
ACHN = assay: NCI human tumor cell panel: ACHN (Renal Cancer); type: cell-based
SN12C = assay: NCI human tumor cell panel: SN12C (Renal Cancer); type: cell-based
TK-10 = assay: NCI human tumor cell panel: TK-10 (Renal Cancer); type: cell-based
PC-3 = assay: NCI human tumor cell panel: PC-3 (Prostate Cancer); type: cell-based
MCF7/ADR-RES = assay: NCI human tumor cell panel: MCF7/ADR-RES (Breast Cancer); type: cell-based
HS 578T = assay: NCI human tumor cell panel: HS 578T (Breast Cancer); type: cell-based; details: read-out: Log10 TGI (converted)
BT-549 = assay: NCI human tumor cell panel: BT-549 (Breast Cancer); type: cell-based
HOP-92 = assay: NCI human tumor cell panel: HOP-92 (Non-Small Cell Lung Cancer)
[1] = read-out: Log10 GI50 (converted)
[2] = read-out: Log10 TGI (converted)

## OCc1ccc(-c2ccc(-c3ccc(CO)[se]3)s2)s1 [compound 688830]
K-562; K562, K-562, read-out: Log10 GI50 (converted)
  GI50: 0.0724 µM
K-562; K562, K-562, read-out: Log10 TGI (converted)
  IC (TGI): 17.4 µM
MOLT-4; MOLT-4, read-out: Log10 GI50 (converted)
  GI50: 38.9 µM
MOLT-4; MOLT-4, read-out: Log10 TGI (converted)
  IC (TGI): > 100 µM
SR; [1]
  GI50: 24.5 µM
SR; [2]
  IC (TGI): 72.4 µM
A549/ATCC; [1]
  GI50: 6.03 µM
A549/ATCC; [2]
  IC (TGI): 33.1 µM
EKVX; [1]
  GI50: 19.5 µM
EKVX; [2]
  IC (TGI): 66.1 µM
HOP-62; HOP-62, read-out: Log10 GI50 (converted)
  GI50: 0.0617 µM
HOP-62; HOP-62, read-out: Log10 TGI (converted)
  IC (TGI): 28.2 µM
NCI-H23; NCI-H23, read-out: Log10 GI50 (converted)
  GI50: 85.1 µM
NCI-H23; NCI-H23, read-out: Log10 TGI (converted)
  IC (TGI): > 100 µM
NCI-H460; NCI-H460, read-out: Log10 GI50 (converted)
  GI50: 0.017 µM
NCI-H460; NCI-H460, read-out: Log10 TGI (converted)
  IC (TGI): 0.646 µM
HCT-116; HCT-116, read-out: Log10 GI50 (converted)
  GI50: 0.0275 µM
HCT-116; HCT-116, read-out: Log10 TGI (converted)
  IC (TGI): 17.4 µM
HCT-15; HCT-15, read-out: Log10 GI50 (converted)
  GI50: 28.8 µM
HCT-15; HCT-15, read-out: Log10 TGI (converted)
  IC (TGI): > 100 µM
HT29; HT-29, HT29, read-out: Log10 GI50 (converted)
  GI50: 0.224 µM
HT29; HT-29, HT29, read-out: Log10 TGI (converted)
  IC (TGI): 43.7 µM
KM12; KM12, read-out: Log10 GI50 (converted)
  GI50: 47.9 µM
KM12; KM12, read-out: Log10 TGI (converted)
  IC (TGI): > 100 µM
SW-620; SW-620, read-out: Log10 GI50 (converted)
  GI50: 0.0398 µM
SW-620; SW-620, read-out: Log10 TGI (converted)
  IC (TGI): 25.1 µM
SF-295; SF-295, read-out: Log10 GI50 (converted)
  GI50: 20.9 µM
SF-295; SF-295, read-out: Log10 TGI (converted)
  IC (TGI): 56.2 µM
SNB-75; SNB-75, read-out: Log10 GI50 (converted)
  GI50: 25.7 µM
SNB-75; SNB-75, read-out: Log10 TGI (converted)
  IC (TGI): > 100 µM
LOX IMVI; [1]
  GI50: 13.5 µM
LOX IMVI; [2]
  IC (TGI): 27.5 µM
MALME-3M; [1]
  GI50: 43.7 µM
MALME-3M; [2]
  IC (TGI): > 100 µM
UACC-257; UACC-257, read-out: Log10 GI50 (converted)
  GI50: 0.0166 µM
UACC-257; UACC-257, read-out: Log10 TGI (converted)
  IC (TGI): 0.0457 µM
UACC-62; UACC-62, read-out: Log10 GI50 (converted)
  GI50: 0.0135 µM
UACC-62; UACC-62, read-out: Log10 TGI (converted)
  IC (TGI): > 100 µM
IGROV1; IGROV-1, IGROV1, read-out: Log10 GI50 (converted)
  GI50: 0.0141 µM
IGROV1; IGROV-1, IGROV1, read-out: Log10 TGI (converted)
  IC (TGI): 0.174 µM
OVCAR-4
  GI50: 0.105 µM
OVCAR-5
  GI50: 0.0229 µM
OVCAR-8; OVCAR-8, read-out: Log10 GI50 (converted)
  GI50: 6.92 µM
OVCAR-8; OVCAR-8, read-out: Log10 TGI (converted)
  IC (TGI): 30.9 µM
786-0; 786-0, read-out: Log10 GI50 (converted)
  GI50: 6.46 µM
786-0; 786-0, read-out: Log10 TGI (converted)
  IC (TGI): 22.9 µM
A498; A498, read-out: Log10 GI50 (converted)
  GI50: < 0.01 µM
A498; A498, read-out: Log10 TGI (converted)
  IC (TGI): 0.0245 µM
ACHN; [1]
  GI50: 20.9 µM
ACHN; [2]
  IC (TGI): > 100 µM
SN12C; [1]
  GI50: 49 µM
SN12C; [2]
  IC (TGI): > 100 µM
TK-10; TK-10, read-out: Log10 GI50 (converted)
  GI50: < 0.01 µM
TK-10; TK-10, read-out: Log10 TGI (converted)
  IC (TGI): 0.0372 µM
PC-3; PC-3, read-out: Log10 GI50 (converted)
  GI50: 30.9 µM
PC-3; PC-3, read-out: Log10 TGI (converted)
  IC (TGI): > 100 µM
MCF7/ADR-RES; [1]
  GI50: 12.3 µM
MCF7/ADR-RES; [2]
  IC (TGI): > 100 µM
HS 578T
  IC (TGI): > 100 µM
BT-549; BT-549, read-out: Log10 GI50 (converted)
  GI50: > 100 µM
BT-549; BT-549, read-out: Log10 TGI (converted)
  IC (TGI): > 100 µM
HOP-92; HOP-92, read-out: Log10 GI50 (converted)
  GI50: 28.2 µM
HOP-92; HOP-92, read-out: Log10 TGI
  IC (TGI): > 100 µM
